Laboratory results as given in patent publication US20190381086A1, “INHIBITION OF NEDDYLATION USING GLYCYL-tRNA SYNTHETASE INHIBITORS” (The Scripps Research Institute, priority 2015, published 2019).

Experiments:
KM12 [1] = assay: NCI 60 Cell One-Dose Screen; assay type: cell-based, human; settings: KM12, Colon Cancer; single dose 10^-5 M
SN12C [2] = assay: NCI 60 Cell One-Dose Screen; assay type: cell-based, human; settings: Renal Cancer, single dose 10^-5 M
NCI/ADR-RES = assay: NCI 60 Cell One-Dose Screen; assay type: cell-based, human; settings: Ovarian Cancer, single dose 10^-5 M
SW-620 = assay: NCI 60 Cell One-Dose Screen; assay type: cell-based, human; settings: SW-620, Colon Cancer; single dose 10^-5 M
UO-31 [3] = assay: NCI 60 Cell One-Dose Screen; assay type: cell-based, human; settings: UO-31, Renal Cancer; single dose 10^-5 M
A549/ATCC = assay: NCI 60 Cell One-Dose Screen; assay type: cell-based, human; settings: Non-Small Cell Lung Cancer, single dose 10^-5 M
SR = assay: NCI 60 Cell One-Dose Screen; assay type: cell-based, human; settings: Leukemia, single dose 10^-5 M
OVCAR-3 = assay: NCI 60 Cell One-Dose Screen; assay type: cell-based, human; settings: OVCAR-3, Ovarian Cancer; single dose 10^-5 M
HCT-15 [4] = assay: NCI 60 Cell One-Dose Screen; assay type: cell-based, human; settings: HCT-15, Colon Cancer; single dose 10^-5 M
IGROV1 = assay: NCI 60 Cell One-Dose Screen; assay type: cell-based, human; settings: IGROV1, Ovarian Cancer; single dose 10^-5 M
ACHN [5] = assay: NCI 60 Cell One-Dose Screen; assay type: cell-based, human; settings: Renal Cancer, single dose 10^-5 M
EKVX = assay: NCI 60 Cell One-Dose Screen; assay type: cell-based, human; settings: Non-Small Cell Lung Cancer, single dose 10^-5 M
COLO 205 = assay: NCI 60 Cell One-Dose Screen; assay type: cell-based, human; settings: COLO 205, Colon Cancer; single dose 10^-5 M
SN12C [6] = assay type: cell-based; settings: Renal Cancer
DU-145 = assay type: cell-based; settings: DU-145, Prostate Cancer
NCI-H23 = assay type: cell-based; settings: NCI-H23, Non-Small Cell Lung Cancer
MOLT-4 = assay type: cell-based; settings: MOLT-4, Leukemia
HS 578T = assay type: cell-based; settings: Breast Cancer
MDA-MB-231/ATCC = assay type: cell-based; settings: Breast Cancer
HT29 = assay type: cell-based; settings: HT29, Colon Cancer
KM12 [7] = assay type: cell-based; settings: KM12, Colon Cancer
NCI-H460 = assay type: cell-based; settings: NCI-H460, Non-Small Cell Lung Cancer
HCT-15 [8] = assay type: cell-based; settings: HCT-15, Colon Cancer
PC-3 = assay type: cell-based; settings: PC-3, Prostate Cancer
ACHN [9] = assay type: cell-based; settings: Renal Cancer
TK-10 = assay type: cell-based
SNB-75 = assay type: cell-based; settings: SNB-75, CNS Cancer
SK-MEL-28 = assay type: cell-based; settings: SK-MEL-28, Melanoma
LOX IMVI = assay type: cell-based; settings: Melanoma
A498 = assay type: cell-based; settings: A498, Renal Cancer
786-0 = assay type: cell-based; settings: 786-0, Renal Cancer
UO-31 [10] = assay type: cell-based; settings: UO-31, Renal Cancer
S. aureus GlyRS = S. aureus GlyRS (UniProt Q2FY08); settings: read-out: IC50 (the inhibitor concentration at which GlyRS activity is reduced by half); cited from earlier work
[11] = Homo sapiens, read-out: LC50 (the source's name)

For NCC(=O)NS(=O)(=O)OC[C@H]1O[C@@H](n2cnc3c(N)ncnc32)[C@H](O)[C@@H]1O [GlySA, glycylsulfamoyladenosine], the “Growth inhibition count (%)” value (KM12 [1]) was 0.7347%, the “Growth inhibition count (%)” value (SN12C [2]) was 1.03% and the “Growth inhibition count (%)” value (NCI/ADR-RES) was 2.073%. The “Growth inhibition count (%)” value (SW-620) was 3.712%, the “Growth inhibition count (%)” value (UO-31 [3]) was 6.084% and the “Growth inhibition count (%)” value (A549/ATCC) was 9.701%. For the same compound, the “Growth inhibition count (%)” value (SR) was 9.926%, the “Growth inhibition count (%)” value (OVCAR-3) was 10.05% and the “Growth inhibition count (%)” value (HCT-15 [4]) was 11.42%. The “Growth inhibition count (%)” value (IGROV1) was 11.7%, the “Growth inhibition count (%)” value (ACHN [5]) was 11.79% and the “Growth inhibition count (%)” value (EKVX) was 44.07%. The “Growth inhibition count (%)” value (COLO 205) was 48.51%, the GI50 (SN12C [6]; Homo sapiens) was 0.562 µM and the CC50 (SN12C [6]; [11]) was 95.5 µM. For the same compound, the LC50/GI50 (SN12C [6]) was 169.8, the LC50/GI50 (DU-145) was over 144.5 and the GI50 (DU-145; Homo sapiens) was 0.692 µM. The GI50 (NCI-H23; Homo sapiens) was 2.57 µM, the CC50 (NCI-H23; [11]) was over 100 µM and the LC50/GI50 (NCI-H23) was over 38.9. It also gave a GI50 (MOLT-4; Homo sapiens) of 2.63 µM, a CC50 (MOLT-4; [11]) of over 100 µM and an LC50/GI50 (MOLT-4) of over 38.0. It also gave an LC50/GI50 (HS 578T) of over 34.7, a GI50 (HS 578T; Homo sapiens) of 2.88 µM and a CC50 (HS 578T; [11]) of over 100 µM. It also gave an LC50/GI50 (MDA-MB-231/ATCC) of 34.7, a GI50 (MDA-MB-231/ATCC; Homo sapiens) of 0.525 µM and a CC50 (MDA-MB-231/ATCC; [11]) of 18.2 µM. The LC50/GI50 (HT29) was over 33.9, the GI50 (HT29; Homo sapiens, HT-29) was 2.95 µM and the CC50 (HT29; Homo sapiens, HT-29, read-out: LC50 (the source's name)) was over 100 µM. The GI50 (KM12 [7]; Homo sapiens) was 3.24 µM, the LC50/GI50 (KM12 [7]) was over 30.9 and the GI50 (NCI-H460; Homo sapiens) was 3.24 µM. It also gave a CC50 (NCI-H460; [11]) of over 100 µM, an LC50/GI50 (NCI-H460) of over 30.9 and an LC50/GI50 (HCT-15 [8]) of 27.5. The GI50 (HCT-15 [8]; Homo sapiens) was 2.95 µM, the CC50 (HCT-15 [8]; [11]) was 81.3 µM and the GI50 (PC-3; Homo sapiens) was 2.63 µM. It also gave a CC50 (PC-3; [11]) of 56.2 µM, an LC50/GI50 (PC-3) of 21.4 and a GI50 (ACHN [9]; Homo sapiens) of 2.88 µM. The CC50 (ACHN [9]; [11]) was 33.9 µM, the LC50/GI50 (ACHN [9]) was 11.7 and the GI50 (TK-10; Homo sapiens, TK-10) was 2.75 µM. It also gave a CC50 (TK-10; Homo sapiens, TK-10, Renal Cancer, read-out: LC50 (the source's name)) of 23.4 µM, an LC50/GI50 (TK-10; TK-10, Renal Cancer) of 8.5 and a GI50 (SNB-75; Homo sapiens) of 1.15 µM. It also gave a CC50 (SNB-75; [11]) of 9.55 µM, an LC50/GI50 (SNB-75) of 8.3 and a GI50 (SK-MEL-28; Homo sapiens) of 1.95 µM. It also gave a CC50 (SK-MEL-28; [11]) of 8.91 µM, an LC50/GI50 (SK-MEL-28) of 4.6 and a GI50 (LOX IMVI; Homo sapiens) of 1.7 µM. The CC50 (LOX IMVI; [11]) was 7.41 µM, the LC50/GI50 (LOX IMVI) was 4.4 and the LC50/GI50 (A498) was 4.1. It also gave a GI50 (A498; Homo sapiens) of 1.58 µM, a CC50 (A498; [11]) of 6.46 µM and an LC50/GI50 (786-0) of 3.8. For the same compound, the GI50 (786-0; Homo sapiens) was 1.78 µM, the CC50 (786-0; [11]) was 6.76 µM and the GI50 (UO-31 [10]; Homo sapiens) was 1.7 µM. For the same compound, the CC50 (UO-31 [10]; [11]) was 6.17 µM, the LC50/GI50 (UO-31 [10]) was 3.6 and the IC50 (S. aureus GlyRS) was about 2400 µM.
